# Measurements reported in ChEMBL document CHEMBL5614375, “PepExplainer: An explainable deep learning model for selection-based macrocyclic peptide bioactivity prediction and optimization” (Eur J Med Chem, 2024).
# Bridge positions count the residues as written; N and C are the ends. Peptide text beside a SMILES is read from it.
# Molecular target: T1, IL17-RE-IL-17C (Homo sapiens, UniProt Q8NFR9+Q9P0M4)
# T1 sequence (Q9P0M4 whole entry): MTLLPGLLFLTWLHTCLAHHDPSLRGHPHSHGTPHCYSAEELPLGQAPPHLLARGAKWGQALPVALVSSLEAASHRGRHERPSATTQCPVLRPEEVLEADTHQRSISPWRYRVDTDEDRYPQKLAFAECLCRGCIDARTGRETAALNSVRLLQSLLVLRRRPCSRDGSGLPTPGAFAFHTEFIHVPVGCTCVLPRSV
# T1 sequence (Q8NFR9 whole entry): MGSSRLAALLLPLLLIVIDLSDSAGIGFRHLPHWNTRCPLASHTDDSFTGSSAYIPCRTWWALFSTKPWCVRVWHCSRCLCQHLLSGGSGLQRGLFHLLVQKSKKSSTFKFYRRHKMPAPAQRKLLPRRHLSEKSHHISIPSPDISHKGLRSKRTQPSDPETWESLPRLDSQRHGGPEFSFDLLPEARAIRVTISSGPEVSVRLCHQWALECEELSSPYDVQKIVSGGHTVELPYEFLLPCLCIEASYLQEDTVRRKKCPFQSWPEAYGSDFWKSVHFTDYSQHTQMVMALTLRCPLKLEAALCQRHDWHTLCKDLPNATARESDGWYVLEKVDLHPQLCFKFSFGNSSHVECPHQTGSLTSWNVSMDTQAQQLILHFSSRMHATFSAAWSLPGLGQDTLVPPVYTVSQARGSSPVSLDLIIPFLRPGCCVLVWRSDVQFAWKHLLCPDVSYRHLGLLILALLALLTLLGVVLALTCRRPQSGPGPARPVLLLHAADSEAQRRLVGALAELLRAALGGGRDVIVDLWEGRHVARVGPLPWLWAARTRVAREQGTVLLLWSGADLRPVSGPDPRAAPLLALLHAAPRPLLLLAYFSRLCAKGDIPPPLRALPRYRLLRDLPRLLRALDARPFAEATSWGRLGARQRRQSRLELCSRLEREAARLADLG
# Assay: Inhibition of interleukin-17RE/biotinylated IL-17C protein-protein interaction (unknown origin) incubated for 1 hrs by competitive ELISA
# Type: protein-complex assay
row,SMILES,IC50 [µM]
1,CC(C)C[C@@H]1NC(=O)[C@H](CC(=O)O)NC(=O)CNC(=O)[C@H](Cc2ccc(O)cc2)NC(=O)[C@H](CC(C)C)NC(=O)[C@H](CO)NC(=O)[C@H](CCCNC(=N)N)NC(=O)[C@H](Cc2ccc(O)cc2)NC(=O)[C@H](CC(N)=O)NC(=O)[C@H](Cc2c[nH]cn2)NC(=O)[C@H](Cc2c[nH]cn2)NC(=O)[C@H](Cc2ccc(O)cc2)NC(=O)CSC[C@@H](C(=O)NCC(N)=O)NC(=O)CNC1=O ({CH2CO}-YHHNYRSLYGDLGCG-NH2; thioether N-14),> 30
2,CC(C)C[C@@H]1NC(=O)[C@H](CC(=O)O)NC(=O)CNC(=O)[C@H](Cc2ccc(O)cc2)NC(=O)[C@H](CC(C)C)NC(=O)[C@H](CO)NC(=O)[C@H](CCCNC(=N)N)NC(=O)[C@H](Cc2c[nH]cn2)NC(=O)[C@H](Cc2ccc(O)cc2)NC(=O)[C@H](Cc2c[nH]cn2)NC(=O)[C@H](Cc2c[nH]cn2)NC(=O)[C@H](Cc2ccc(O)cc2)NC(=O)CSC[C@@H](C(=O)NCC(N)=O)NC(=O)CNC1=O ({CH2CO}-YHHYHRSLYGDLGCG-NH2; thioether N-14),> 30
3,CC[C@H](C)[C@@H]1NC(=O)[C@H](CC(N)=O)NC(=O)[C@H](Cc2ccc(O)cc2)NC(=O)[C@H](Cc2ccc(O)cc2)NC(=O)[C@H](Cc2c[nH]cn2)NC(=O)[C@H](Cc2c[nH]cn2)NC(=O)[C@H](Cc2ccc(O)cc2)NC(=O)CSC[C@@H](C(=O)NCC(N)=O)NC(=O)CNC(=O)[C@H](CC(C)C)NC(=O)[C@H](CCC(=O)O)NC(=O)CNC(=O)[C@H](Cc2ccc(O)cc2)NC(=O)[C@H](CC(C)C)NC1=O ({CH2CO}-YHHYYNILYGELGCG-NH2; thioether N-14),2.36

# Now those with a lower IC50, led by results:
row,IC50 [µM],SMILES
1,0.0056,CC[C@@H](C)[C@@H]1NC(=O)[C@H](CCCNC(=N)N)NC(=O)[C@H](Cc2ccc(O)cc2)NC(=O)[C@H](Cc2ccc(O)cc2)NC(=O)[C@H](CCC(N)=O)NC(=O)[C@H](Cc2c[nH]cn2)NC(=O)[C@H](Cc2ccc(O)cc2)NC(=O)CSC[C@@H](C(=O)NCC(N)=O)NC(=O)CNC(=O)[C@H](CC(C)C)NC(=O)[C@H](CC(N)=O)NC(=O)CNC(=O)[C@H](Cc2ccc(O)cc2)NC(=O)[C@H](CC(C)C)NC1=O
2,0.086,CC[C@H](C)[C@@H]1NC(=O)[C@H](CCCNC(=N)N)NC(=O)[C@H](Cc2ccc(O)cc2)NC(=O)[C@H](Cc2ccc(O)cc2)NC(=O)[C@H](CCC(=O)O)NC(=O)[C@H](Cc2c[nH]cn2)NC(=O)[C@H](Cc2ccc(O)cc2)NC(=O)CSC[C@@H](C(=O)NCC(N)=O)NC(=O)CNC(=O)[C@H](CC(C)C)NC(=O)[C@H](CCC(=O)O)NC(=O)CNC(=O)[C@H](Cc2ccc(O)cc2)NC(=O)[C@H](CC(C)C)NC1=O ({CH2CO}-YHEYYRILYGELGCG-NH2; thioether N-14)
3,0.116,CC[C@H](C)[C@@H]1NC(=O)[C@H](CCCCN)NC(=O)[C@H](Cc2ccc(O)cc2)NC(=O)[C@H](Cc2ccc(O)cc2)NC(=O)[C@H](Cc2c[nH]cn2)NC(=O)[C@H](Cc2c[nH]cn2)NC(=O)[C@H](Cc2ccc(O)cc2)NC(=O)CSC[C@@H](C(=O)NCC(N)=O)NC(=O)CNC(=O)[C@H](CC(C)C)NC(=O)[C@H](CCC(=O)O)NC(=O)CNC(=O)[C@H](Cc2ccc(O)cc2)NC(=O)[C@H](CC(C)C)NC1=O ({CH2CO}-YHHYYKILYGELGCG-NH2; thioether N-14)
4,0.254,CC(C)C[C@@H]1NC(=O)[C@H](C)NC(=O)[C@H](CCCNC(=N)N)NC(=O)[C@H](Cc2ccc(O)cc2)NC(=O)[C@H](Cc2ccc(O)cc2)NC(=O)[C@H](Cc2c[nH]cn2)NC(=O)[C@H](Cc2c[nH]cn2)NC(=O)[C@H](Cc2ccc(O)cc2)NC(=O)CSC[C@@H](C(=O)NCC(N)=O)NC(=O)CNC(=O)[C@H](CC(C)C)NC(=O)[C@H](CCC(=O)O)NC(=O)CNC(=O)[C@H](Cc2ccc(O)cc2)NC1=O ({CH2CO}-YHHYYRALYGELGCG-NH2; thioether N-14)
